Assay results from the supplement of paper PMC4862054.

Columns and labels:
Details in all cases: incubation time: 72 h
MDA-MB-231 [1] = test: normalised response (% of control), CellTox Green; higher = less cell death (100 = DMSO, 0 = benzethonium chloride kill control)
Outline: (§1)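 After 72 h with compound in 384-well plates, breast cancer cell lines seeded as 20 µl suspension were read for CellTox Green fluorescence at 485/520 nm. CellTiter-Glo luminescence was then read after 10 min at room temperature. Compound was present at 5 concentrations in 10-fold steps over a 10,000-fold range set per compound, and plates were normalised to 0.1 % DMSO (100) and a positive kill control (0). Values are normalised signals, each at a single concentration.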

CAL-51 [2] = test: as above
Outline: as §1

CAL-120 [3] = test: as above
Outline: as §1

DU-4475 [4] = test: as above
Outline: as §1

Hs578T [5] = test: as above
Outline: as §1

HCC1599 [6] = test: as above
Outline: as §1

MCF-10A [7] = test: as above
Outline: as §1

MDA-MB-468 [8] = test: as above
Outline: as §1

CAL-148 [9] = test: as above
Outline: as §1

CAL-85-1 [10] = test: as above
Outline: as §1

MDA-MB-436 [11] = test: as above
Outline: as §1

HCC1937 [12] = test: as above
Outline: as §1

MDA-MB-453 [13] = test: as above
Outline: as §1

BT-549 [14] = test: as above
Outline: as §1

MFM-223 [15] = test: as above
Outline: as §1

HDQ-P1 [16] = test: as above
Outline: as §1

HCC1143 [17] = test: as above
Outline: as §1

BT-474 [18] = test: as above
Outline: as §1

MDA-MB-231 [19] = test: normalised response (% of control), CellTiter-Glo; higher = more viable cells (100 = DMSO, 0 = benzethonium chloride kill control)
Method: (§2)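 DSRT, 72 h incubation, CellTox Green / CellTiter-Glo readout. Signal is normalised to DMSO and benzethonium chloride controls. Value is the normalised response at the highest dose.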

CAL-51 [20] = test: as above
Method: as §2

CAL-120 [21] = test: as above
Method: as §2

DU-4475 [22] = test: as above
Method: as §2

Hs578T [23] = test: as above
Method: as §2

HCC1599 [24] = test: as above
Method: as §2

MCF-10A [25] = test: as above
Method: as §2

MDA-MB-468 [26] = test: as above
Method: as §2

SK-BR-3 = test: as above
Method: as §2

CAL-148 [27] = test: as above
Method: as §2

CAL-85-1 [28] = test: as above
Method: as §2

MDA-MB-436 [29] = test: as above
Method: as §2

HCC1937 [30] = test: as above
Method: as §2

MDA-MB-453 [31] = test: as above
Method: as §2

BT-549 [32] = test: as above
Method: as §2

MFM-223 [33] = test: as above
Method: as §2

HDQ-P1 [34] = test: as above
Method: as §2

HCC1143 [35] = test: as above
Method: as §2

BT-474 [36] = test: as above
Method: as §2

CCc1cncnc1N1CCN(Cc2nc3ccc(C(F)(F)F)cc3[nH]2)CC1 (10000 nM)
normalised response (MDA-MB-231 [1]): 118% | normalised response (CAL-51 [2]): 94.5% | normalised response (CAL-120 [3]): 99.6% | normalised response (DU-4475 [4]): 104% | normalised response (Hs578T [5]): 72.9% | normalised response (HCC1599 [6]): 99.2% | normalised response (MCF-10A [7]): 105% | normalised response (MDA-MB-468 [8]): 103% | normalised response (CAL-148 [9]): 103% | normalised response (CAL-85-1 [10]): 67.3% | normalised response (MDA-MB-436 [11]): 102% | normalised response (HCC1937 [12]): 90.2% | normalised response (MDA-MB-453 [13]): 99.9% | normalised response (BT-549 [14]): 95.6% | normalised response (MFM-223 [15]): 103% | normalised response (HDQ-P1 [16]): 63.1% | normalised response (HCC1143 [17]): 117% | normalised response (BT-474 [18]): 93% | normalised response (MDA-MB-231 [19]): 95% | normalised response (CAL-51 [20]): 49.3% | normalised response (CAL-120 [21]): 89% | normalised response (DU-4475 [22]): 89.9% | normalised response (Hs578T [23]): 95.7% | normalised response (HCC1599 [24]): 85.7% | normalised response (MCF-10A [25]): 93.8% | normalised response (MDA-MB-468 [26]): 70% | normalised response (SK-BR-3): 89.5% | normalised response (CAL-148 [27]): 95.4% | normalised response (CAL-85-1 [28]): 91.8% | normalised response (MDA-MB-436 [29]): 95.7% | normalised response (HCC1937 [30]): 82.1% | normalised response (MDA-MB-453 [31]): 81.6% | normalised response (BT-549 [32]): 83.9% | normalised response (MFM-223 [33]): 78.3% | normalised response (HDQ-P1 [34]): 102% | normalised response (HCC1143 [35]): 90% | normalised response (BT-474 [36]): 85.8%

CC[C@@H]1C(=O)N(C)c2cnc(Nc3ccc(C(=O)NC4CCN(C)CC4)cc3OC)nc2N1C1CCCC1 [BI 2536] (1000 nM)
normalised response (MDA-MB-231 [1]): 101% | normalised response (CAL-51 [2]): 32% | normalised response (CAL-120 [3]): 79.6% | normalised response (DU-4475 [4]): 95.1% | normalised response (Hs578T [5]): 29.2% | normalised response (HCC1599 [6]): 92.2% | normalised response (MCF-10A [7]): 100% | normalised response (MDA-MB-468 [8]): 98.3% | normalised response (CAL-148 [9]): 70.4% | normalised response (CAL-85-1 [10]): 43.9% | normalised response (MDA-MB-436 [11]): 102% | normalised response (HCC1937 [12]): 109% | normalised response (MDA-MB-453 [13]): 101% | normalised response (BT-549 [14]): 90.3% | normalised response (MFM-223 [15]): 90.7% | normalised response (HDQ-P1 [16]): 93% | normalised response (HCC1143 [17]): 113% | normalised response (BT-474 [18]): 97.5% | normalised response (MDA-MB-231 [19]): 72.4% | normalised response (CAL-51 [20]): 31.7% | normalised response (CAL-120 [21]): 52.5% | normalised response (DU-4475 [22]): 75.6% | normalised response (Hs578T [23]): 24.2% | normalised response (HCC1599 [24]): 26.5% | normalised response (MCF-10A [25]): 44.4% | normalised response (MDA-MB-468 [26]): 42.3% | normalised response (SK-BR-3): 26.9% | normalised response (CAL-148 [27]): 79.9% | normalised response (CAL-85-1 [28]): 44.7% | normalised response (MDA-MB-436 [29]): 73.8% | normalised response (HCC1937 [30]): 74.7% | normalised response (MDA-MB-453 [31]): 58.9% | normalised response (BT-549 [32]): 28.3% | normalised response (MFM-223 [33]): 55.6% | normalised response (HDQ-P1 [34]): 66.6% | normalised response (HCC1143 [35]): 39.3% | normalised response (BT-474 [36]): 75.9%

O=C(O)CCCCC(CCSCc1ccccc1)SCc1ccccc1 (stereo not drawn) [CPI-613] (10000 nM)
normalised response (MDA-MB-231 [1]): 90.9% | normalised response (CAL-51 [2]): 103% | normalised response (CAL-120 [3]): 98.6% | normalised response (DU-4475 [4]): 98.8% | normalised response (Hs578T [5]): 94.3% | normalised response (HCC1599 [6]): 102% | normalised response (MCF-10A [7]): 104% | normalised response (MDA-MB-468 [8]): 131% | normalised response (CAL-148 [9]): 99.7% | normalised response (CAL-85-1 [10]): 88.7% | normalised response (MDA-MB-436 [11]): 91.2% | normalised response (HCC1937 [12]): 80.9% | normalised response (MDA-MB-453 [13]): 104% | normalised response (BT-549 [14]): 80.4% | normalised response (MFM-223 [15]): 97.6% | normalised response (HDQ-P1 [16]): 104% | normalised response (HCC1143 [17]): 92.7% | normalised response (BT-474 [18]): 94.8% | normalised response (MDA-MB-231 [19]): 93.6% | normalised response (CAL-51 [20]): 97.5% | normalised response (CAL-120 [21]): 104% | normalised response (DU-4475 [22]): 100% | normalised response (Hs578T [23]): 99.2% | normalised response (HCC1599 [24]): 101% | normalised response (MCF-10A [25]): 103% | normalised response (MDA-MB-468 [26]): 98.2% | normalised response (SK-BR-3): 106% | normalised response (CAL-148 [27]): 105% | normalised response (CAL-85-1 [28]): 97.5% | normalised response (MDA-MB-436 [29]): 98.2% | normalised response (HCC1937 [30]): 108% | normalised response (MDA-MB-453 [31]): 105% | normalised response (BT-549 [32]): 96.5% | normalised response (MFM-223 [33]): 102% | normalised response (HDQ-P1 [34]): 106% | normalised response (HCC1143 [35]): 100% | normalised response (BT-474 [36]): 98.9%

C=CC(=O)Nc1cc2c(Nc3ccc(F)c(Cl)c3)ncnc2cc1OCCCN1CCOCC1 [Canertinib] (10000 nM)
normalised response (MDA-MB-231 [1]): 13.5% | normalised response (CAL-51 [2]): 5.47% | normalised response (CAL-120 [3]): 31% | normalised response (DU-4475 [4]): 89.5% | normalised response (Hs578T [5]): -21.7% | normalised response (HCC1599 [6]): 111% | normalised response (MCF-10A [7]): -28.8% | normalised response (MDA-MB-468 [8]): -36.9% | normalised response (CAL-148 [9]): 65.4% | normalised response (CAL-85-1 [10]): -11% | normalised response (MDA-MB-436 [11]): 87.1% | normalised response (HCC1937 [12]): 80.3% | normalised response (MDA-MB-453 [13]): 87.6% | normalised response (BT-549 [14]): 55.1% | normalised response (MFM-223 [15]): 26.9% | normalised response (HDQ-P1 [16]): 37.8% | normalised response (HCC1143 [17]): 84.5% | normalised response (BT-474 [18]): 55.4% | normalised response (MDA-MB-231 [19]): 5% | normalised response (CAL-51 [20]): 3.06% | normalised response (CAL-120 [21]): 26.6% | normalised response (DU-4475 [22]): 74.1% | normalised response (Hs578T [23]): 17.4% | normalised response (HCC1599 [24]): 66.4% | normalised response (MCF-10A [25]): 0.13% | normalised response (MDA-MB-468 [26]): 2.49% | normalised response (SK-BR-3): 24.4% | normalised response (CAL-148 [27]): 42.9% | normalised response (CAL-85-1 [28]): 3.6% | normalised response (MDA-MB-436 [29]): 22.2% | normalised response (HCC1937 [30]): 14.5% | normalised response (MDA-MB-453 [31]): 25.5% | normalised response (BT-549 [32]): 4.73% | normalised response (MFM-223 [33]): 26.4% | normalised response (HDQ-P1 [34]): 1.5% | normalised response (HCC1143 [35]): 24.3% | normalised response (BT-474 [36]): 15.9%
